Experimental data published in publication PMC10224201, “Characterization of Non-Specific Uptake and Retention Mechanisms of [^177Lu]Lu-PSMA-617 in the Salivary Glands” (Pharmaceuticals, 2023).

Biological target: T1, PSMA (PC3-PIP cells) (Homo sapiens, UniProt Q04609)
T1 construct: gene FOLH1; full length, on intact PSMA-positive PC3-PIP prostate cancer cells (PC3-Flu as PSMA-negative control)
Experiment: competition with […]Lu-PSMA-617 on cells, gamma counting
Assay type: cell-based
Conditions: read-out: % of control binding at 9000 μM

T1 sequence (Q04609 whole entry): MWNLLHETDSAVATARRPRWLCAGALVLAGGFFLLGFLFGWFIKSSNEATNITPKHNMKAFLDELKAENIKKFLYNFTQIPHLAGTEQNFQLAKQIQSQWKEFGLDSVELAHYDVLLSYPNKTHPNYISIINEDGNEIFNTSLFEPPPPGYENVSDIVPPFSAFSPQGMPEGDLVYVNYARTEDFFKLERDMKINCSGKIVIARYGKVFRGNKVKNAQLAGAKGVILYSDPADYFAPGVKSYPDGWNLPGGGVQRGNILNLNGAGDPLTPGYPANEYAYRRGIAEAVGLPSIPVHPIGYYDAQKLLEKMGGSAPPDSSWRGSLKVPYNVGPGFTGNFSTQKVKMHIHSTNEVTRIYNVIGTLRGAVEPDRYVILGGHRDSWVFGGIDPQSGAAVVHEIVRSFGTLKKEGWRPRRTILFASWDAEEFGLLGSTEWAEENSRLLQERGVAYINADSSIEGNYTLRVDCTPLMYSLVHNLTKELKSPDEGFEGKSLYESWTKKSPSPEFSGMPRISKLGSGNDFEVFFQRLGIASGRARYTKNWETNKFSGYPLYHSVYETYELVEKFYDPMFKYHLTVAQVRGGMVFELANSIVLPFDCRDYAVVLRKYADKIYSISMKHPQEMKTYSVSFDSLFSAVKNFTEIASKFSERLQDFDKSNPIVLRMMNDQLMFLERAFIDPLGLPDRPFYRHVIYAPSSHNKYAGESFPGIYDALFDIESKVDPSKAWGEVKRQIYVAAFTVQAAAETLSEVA

## N[C@@H](CCC(=O)O)C(=O)O [monosodium glutamate]
  remaining activity at 9000 µM: 24.9 ± 3.64%
